The values that follow come from ChEMBL document CHEMBL1201862, “PubChem BioAssay data set” (2004).

One assay addresses T1, Leucine aminopeptidase (Plasmodium falciparum 3D7, UniProt Q8IL11).
T1 sequence (Q8IL11 whole entry): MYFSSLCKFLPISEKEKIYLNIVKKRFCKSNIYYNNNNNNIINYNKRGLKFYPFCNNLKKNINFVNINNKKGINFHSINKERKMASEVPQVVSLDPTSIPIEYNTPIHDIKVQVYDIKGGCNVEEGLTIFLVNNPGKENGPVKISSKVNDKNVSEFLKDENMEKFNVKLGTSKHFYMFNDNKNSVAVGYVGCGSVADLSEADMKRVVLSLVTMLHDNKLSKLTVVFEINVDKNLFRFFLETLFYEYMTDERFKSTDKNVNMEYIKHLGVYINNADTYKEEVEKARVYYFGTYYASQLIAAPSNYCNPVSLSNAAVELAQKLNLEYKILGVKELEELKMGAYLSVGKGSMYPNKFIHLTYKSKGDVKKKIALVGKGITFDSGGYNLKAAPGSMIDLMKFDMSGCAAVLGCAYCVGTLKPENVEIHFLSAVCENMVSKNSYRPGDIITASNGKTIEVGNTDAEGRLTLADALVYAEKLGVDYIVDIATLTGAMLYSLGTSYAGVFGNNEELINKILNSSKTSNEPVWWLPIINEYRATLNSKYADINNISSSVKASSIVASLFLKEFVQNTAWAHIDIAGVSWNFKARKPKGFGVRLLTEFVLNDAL
Briefly: P. falciparum M17LAP inhibitors, primary screen, biochemical, fluorogenic H-Leu-NHMec substrate, 1536-well (AID 1619). The format is functional.

The next assay concerns the target Procathepsin L (Homo sapiens, UniProt P07711). As to the kind of experiment: CTSL1 protease inhibition – biochemical, QFRET, 1536-well, counter-screen for M1/M17 aminopeptidase inhibitor project, dose response (AID 2214).
In a further assay the target is T2, Aspartyl aminopeptidase (Plasmodium falciparum 3D7, UniProt Q8I2J3).
T2 sequence (Q8I2J3 whole entry): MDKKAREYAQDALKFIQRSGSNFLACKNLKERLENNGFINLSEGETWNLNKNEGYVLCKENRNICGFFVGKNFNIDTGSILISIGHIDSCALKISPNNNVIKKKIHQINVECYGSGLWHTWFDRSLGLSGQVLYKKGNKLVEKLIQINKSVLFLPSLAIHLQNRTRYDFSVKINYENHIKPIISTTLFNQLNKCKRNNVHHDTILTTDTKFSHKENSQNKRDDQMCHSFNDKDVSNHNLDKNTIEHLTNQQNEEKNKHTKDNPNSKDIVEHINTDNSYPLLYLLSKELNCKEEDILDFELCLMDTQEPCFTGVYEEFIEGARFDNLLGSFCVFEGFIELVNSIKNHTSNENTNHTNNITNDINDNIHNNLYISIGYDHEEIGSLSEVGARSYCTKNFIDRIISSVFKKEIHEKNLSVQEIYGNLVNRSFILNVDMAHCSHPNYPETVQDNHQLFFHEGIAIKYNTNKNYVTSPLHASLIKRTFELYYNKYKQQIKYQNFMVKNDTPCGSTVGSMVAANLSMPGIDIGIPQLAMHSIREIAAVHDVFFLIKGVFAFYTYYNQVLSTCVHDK
As to the kind of experiment: Counterscreen for inhibitors of M1 and M17 aminopeptidases: QFRET-based biochemical high throughput dose response assay for inhibitors of the Plasmodium falciparum M18 Aspartyl Aminopeptidase (PFM18AAP). [Related PubChem assays: 1619 (Screening assay (M17LAP inhibitors).), 1445 (Screening assay (M1AAP inhibitors).)]. (A counterscreen serves to expose hits that act by an unwanted route or on another target.)

The target of assay [1] is T3, Cytochrome P450 2C19 (Homo sapiens, UniProt P33261). Briefly: qHTS Assay for Inhibitors and Substrates of Cytochrome P450 2C19. [Related pubchem assays: 410 ]. The format is ADME. To be noted: read-out: Potency.
T3 sequence (P33261 whole entry): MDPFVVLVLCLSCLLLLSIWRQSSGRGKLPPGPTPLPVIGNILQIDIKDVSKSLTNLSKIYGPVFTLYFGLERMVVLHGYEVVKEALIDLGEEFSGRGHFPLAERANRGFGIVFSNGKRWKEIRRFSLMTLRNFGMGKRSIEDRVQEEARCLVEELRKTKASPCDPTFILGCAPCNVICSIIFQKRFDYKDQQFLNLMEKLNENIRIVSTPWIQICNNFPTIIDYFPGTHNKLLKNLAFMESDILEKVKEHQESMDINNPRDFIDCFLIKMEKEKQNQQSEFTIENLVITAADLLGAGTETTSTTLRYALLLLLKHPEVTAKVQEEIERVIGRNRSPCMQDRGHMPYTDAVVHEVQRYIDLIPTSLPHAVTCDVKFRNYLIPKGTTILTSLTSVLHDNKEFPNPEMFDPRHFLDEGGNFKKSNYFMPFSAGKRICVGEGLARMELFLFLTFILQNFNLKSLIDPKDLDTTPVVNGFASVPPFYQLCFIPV
The target of assay [2] is T3, Cytochrome P450 2C19. As to the kind of experiment: Cytochrome panel assay with activity outcomes. Panel member name: p450-cyp2c19 Compounds with AC50 equal or less than 10 uM are considered active. The format is functional. To be noted: read-out: AC50.
The test system of assay [3] is Vero. As to the kind of experiment: cells. The format is functional. To be noted: Chlorocebus sabaeus.
The subject of assay [4] is Vero. As to the kind of experiment: cells. The format is functional, cell-based. To be noted: Chlorocebus sabaeus.
In assay [5] the target is T4, Heat shock factor protein 1 (Mus musculus, UniProt P38532).
T4 sequence (P38532 whole entry): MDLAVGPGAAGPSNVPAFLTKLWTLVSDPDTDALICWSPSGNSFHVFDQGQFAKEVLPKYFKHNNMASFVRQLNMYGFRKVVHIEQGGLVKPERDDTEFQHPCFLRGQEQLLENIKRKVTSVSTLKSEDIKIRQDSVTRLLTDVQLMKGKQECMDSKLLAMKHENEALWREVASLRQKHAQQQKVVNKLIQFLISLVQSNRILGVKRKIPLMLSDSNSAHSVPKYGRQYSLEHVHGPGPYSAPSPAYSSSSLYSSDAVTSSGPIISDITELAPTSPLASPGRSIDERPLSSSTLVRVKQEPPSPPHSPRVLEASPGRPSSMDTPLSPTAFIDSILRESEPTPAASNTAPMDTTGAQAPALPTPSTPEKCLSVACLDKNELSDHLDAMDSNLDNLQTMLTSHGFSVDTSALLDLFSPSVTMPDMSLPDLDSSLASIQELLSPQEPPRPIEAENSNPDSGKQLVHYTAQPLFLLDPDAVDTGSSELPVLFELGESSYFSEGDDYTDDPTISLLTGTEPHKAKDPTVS
Briefly: enhancement of HSF1-driven luciferase signal – cell-based, NIH3T3, luminescence, dose retest, confirmation (AID 435004).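 Also: stress induced by proteasome inhibitor MG132 added 30 min after compound; luciferase reporter driven by HSF1 response element in NIH3T3 cells; actives raise luminescence as potentiators of the MG132 stress response.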 The format is functional.

The next assay has as its target T5, Protein RecA (Mycobacterium tuberculosis, UniProt P9WHJ3).
T5 sequence (P9WHJ3 whole entry): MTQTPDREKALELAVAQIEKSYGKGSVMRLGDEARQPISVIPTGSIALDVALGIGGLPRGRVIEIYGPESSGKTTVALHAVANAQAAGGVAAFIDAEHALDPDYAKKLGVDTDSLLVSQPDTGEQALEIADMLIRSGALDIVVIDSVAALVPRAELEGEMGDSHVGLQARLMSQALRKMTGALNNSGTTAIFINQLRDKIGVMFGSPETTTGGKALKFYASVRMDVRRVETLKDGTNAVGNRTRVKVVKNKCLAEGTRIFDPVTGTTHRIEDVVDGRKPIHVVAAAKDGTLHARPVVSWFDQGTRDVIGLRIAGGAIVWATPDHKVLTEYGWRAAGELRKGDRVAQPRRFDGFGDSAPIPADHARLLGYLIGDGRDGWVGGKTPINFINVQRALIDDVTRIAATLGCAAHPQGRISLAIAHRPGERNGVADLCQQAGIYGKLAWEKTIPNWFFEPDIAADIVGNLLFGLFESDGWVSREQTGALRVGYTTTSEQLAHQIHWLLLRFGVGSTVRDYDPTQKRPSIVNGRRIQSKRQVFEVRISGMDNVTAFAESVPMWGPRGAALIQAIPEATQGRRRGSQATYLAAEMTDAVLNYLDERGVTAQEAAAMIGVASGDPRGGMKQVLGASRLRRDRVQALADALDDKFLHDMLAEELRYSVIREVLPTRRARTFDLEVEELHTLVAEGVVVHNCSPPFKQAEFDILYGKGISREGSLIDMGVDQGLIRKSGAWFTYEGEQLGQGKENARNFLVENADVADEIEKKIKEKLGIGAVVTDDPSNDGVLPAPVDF
As to the kind of experiment: Fluorescence Cell-Free Homogeneous Dose Retest to Identify Inhibitors of RecA-Intein Splicing Activity. [Related pubchem assays (depositor defined):AID2097, AID2223, AID489010, AID492950]. The format is functional.

Assay [6] deals with Vero. As to the kind of experiment: mammalian cell viability reduction – secondary assay, cytotoxicity control for West Nile virus antiviral project, dose response (AID 1650). The format is functional. To be noted: Chlorocebus sabaeus.
The target in assay [7] is T6, Replicative DNA helicase DnaB (Mycobacterium tuberculosis, UniProt P9WMR3).
T6 sequence (P9WMR3 whole entry): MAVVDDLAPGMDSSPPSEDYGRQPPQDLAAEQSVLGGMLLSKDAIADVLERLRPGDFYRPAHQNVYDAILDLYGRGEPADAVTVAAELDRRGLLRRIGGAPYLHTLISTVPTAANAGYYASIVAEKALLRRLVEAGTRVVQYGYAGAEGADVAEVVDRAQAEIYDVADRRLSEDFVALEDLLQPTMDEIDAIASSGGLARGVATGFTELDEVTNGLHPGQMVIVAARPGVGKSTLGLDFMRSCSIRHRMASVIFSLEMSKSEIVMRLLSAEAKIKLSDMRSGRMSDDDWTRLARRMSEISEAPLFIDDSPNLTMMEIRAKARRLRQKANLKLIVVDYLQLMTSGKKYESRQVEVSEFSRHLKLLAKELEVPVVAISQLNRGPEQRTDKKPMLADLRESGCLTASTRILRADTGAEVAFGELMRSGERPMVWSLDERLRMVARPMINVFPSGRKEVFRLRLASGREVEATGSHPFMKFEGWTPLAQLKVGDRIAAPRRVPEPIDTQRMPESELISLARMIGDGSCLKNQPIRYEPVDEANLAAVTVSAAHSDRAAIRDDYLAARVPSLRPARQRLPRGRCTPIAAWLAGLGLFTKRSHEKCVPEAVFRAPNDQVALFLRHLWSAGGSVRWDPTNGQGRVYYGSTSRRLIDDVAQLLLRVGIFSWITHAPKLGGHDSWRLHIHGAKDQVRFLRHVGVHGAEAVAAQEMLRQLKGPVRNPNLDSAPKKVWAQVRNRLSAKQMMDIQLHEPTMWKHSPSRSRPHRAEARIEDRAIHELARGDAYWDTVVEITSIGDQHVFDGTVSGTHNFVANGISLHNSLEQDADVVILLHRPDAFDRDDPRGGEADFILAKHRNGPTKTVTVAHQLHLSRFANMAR
Briefly: DnaB intein splicing inhibitors, dose response, biochemical, cell-free fluorescence (AID 449749). The format is functional.

Structures are written as SMILES. Activity calls are given as the source filed them.

Chain of Procathepsin L (P07711 whole entry): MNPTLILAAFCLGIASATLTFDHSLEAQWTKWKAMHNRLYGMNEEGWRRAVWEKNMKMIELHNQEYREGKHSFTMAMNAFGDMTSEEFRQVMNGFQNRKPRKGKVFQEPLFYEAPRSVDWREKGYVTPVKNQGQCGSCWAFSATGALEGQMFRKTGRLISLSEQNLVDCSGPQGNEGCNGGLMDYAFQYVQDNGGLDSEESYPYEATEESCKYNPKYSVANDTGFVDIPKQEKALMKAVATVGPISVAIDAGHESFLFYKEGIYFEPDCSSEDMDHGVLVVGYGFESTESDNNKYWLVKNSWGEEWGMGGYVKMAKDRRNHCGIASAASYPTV

As a reminder, the IC50 is the concentration at which inhibition is half-maximal. For the compound `COC(=O)c1c(NC(=O)C2CC=CCC2C(=O)O)sc(C)c1C` (centres undefined), the values for the IC50 on Leucine aminopeptidase, against Procathepsin L and against Aspartyl aminopeptidase were 4.32 µM (active), > 59.6 µM (not active) and > 73.5 µM (not active), respectively.
For `COc1cc2c(cc1C(F)(F)F)N(C(=O)Nc1cc(F)cc(-c3cccnc3)c1)CC2`, the AC50 at Cytochrome P450 2C19 [1] is 1 µM (inconclusive); at Cytochrome P450 2C19 [2], 10 µM (inconclusive).
For the compound `CCc1cc2ccc(C)cc2nc1SCC(=O)Nc1cc(OC)c(OC)cc1C(=O)O`, the concentration for half-maximal inhibition (IC50) is < 1 µM (active) on Leucine aminopeptidase, > 59.6 µM (not active) on Procathepsin L and > 73.5 µM (not active) against Aspartyl aminopeptidase.
By CC50 is commonly meant the concentration that lowers cell viability or growth by half. One may read the EC50 as the concentration needed to bring the measured effect to its halfway point. For the compound `Cc1ccccc1NC(=O)C(=Cc1ccc(C(=O)O)cc1)C(=O)Nc1ccccc1C`, the CC50 in the assay with Vero [3] is 14.7 µM (active); with Vero [6], 7.39 µM (active). For the same compound, the IC50 in the assay with Vero [4] is > 25 µM (active). In addition, the EC50 in assay [5] is 29 µM (active); on Protein RecA it was 5.08 µM (active). The AC50 in assay [7] is 3.66 µM (active).
